Laboratory results from ChEMBL document CHEMBL1135908, “Synthesis and biological evaluation of cycloalkylidene carboxylic acids as novel effectors of Ras/Raf interaction” (J Med Chem, 2002).

assay: Cytotoxicity of compound towards Y190 yeast cells; assay type: functional, cell-based; conditions: Saccharomyces cerevisiae

O=C(O)C=C1CCCC1 and O=C(O)C=C1CCCCCC1 cannot be ordered by EC50: > 300 µM for the first, > 300 µM for the second.

CC(C(=O)O)=C1CCCCCC1 and CC(C(=O)O)=C1CCCCC1 cannot be ordered by EC50: > 300 µM for the first, > 300 µM for the second.

Going from CC(C(=O)O)=C1CCC(C)CC1 (stereo not drawn) to CCC1CCC(=C(C)C(=O)O)CC1 (stereo not drawn), the EC50 falls from > 300 µM to 125 µM.

CC(C(=O)O)=C1CCC(C(C)(C)C)CC1 (stereo not drawn) and CCCC1CCC(=C(C)C(=O)O)CC1 (stereo not drawn) are within 1.5-fold of each other in EC50: 81 µM for the first, 74 µM for the second.

CC(C(=O)O)=C1CCC(c2ccccc2)CC1 (stereo not drawn) and COc1ccc(C2CCC(=C(C)C(=O)O)CC2)cc1 (stereo not drawn) are within 1.5-fold of each other in EC50: 143 µM for the first, 130 µM for the second.

O=CC=C1CCCCCC1 and CC(C(=O)O)=C1CCCC1 cannot be ordered by EC50: > 300 µM for the first, > 300 µM for the second.

In the case of C/C(C(=O)O)=C1\CCCC(C)C1 (stereo not drawn), the EC50 is reported as > 300 µM.
